Laboratory results as given in patent US8871753B2, “Macrocyclic compounds and their use as kinase inhibitors” (Incyte Corporation, priority 2008, dated 2014).
Structures can show the parent of a compound that is named as a salt. Where two headings read alike, the source gives them in different places.

Key:
Format in all cases: biochemical
TYK2 = TYK2 (Homo sapiens, UniProt P29597); assay: TYK2 kinase inhibition (Table A1)
[1] = molecular target: T1, human JAK2 (a.a. 828-1132) (Homo sapiens, UniProt O60674); assay: In vitro JAK kinase assay (HTRF, phosphorylation of a biotinylated peptide), JAK2
T1 construct: JAK2 (a.a. 828-1132); His tag (N); made in house; host or cells: insect cells (baculovirus)
T1 sequence (O60674 828-1132): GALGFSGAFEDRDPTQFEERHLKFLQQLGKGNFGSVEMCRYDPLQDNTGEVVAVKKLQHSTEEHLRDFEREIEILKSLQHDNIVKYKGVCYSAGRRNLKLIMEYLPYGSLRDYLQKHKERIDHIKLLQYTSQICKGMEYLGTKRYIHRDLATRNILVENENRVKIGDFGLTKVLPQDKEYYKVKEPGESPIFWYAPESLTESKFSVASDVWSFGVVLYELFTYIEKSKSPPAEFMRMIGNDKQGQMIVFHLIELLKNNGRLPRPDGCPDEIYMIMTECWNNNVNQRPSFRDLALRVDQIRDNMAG
How it was run: (§1)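 Kinase reactions ran at room temperature for 1 h with ATP matched per isoform (JAK1 90 μM, JAK2 30 μM, JAK3 3 μM). After an EDTA stop, the phosphorylated biotin-peptide was read by HTRF using Eu-Py20 and SA-APC after 40 min binding.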

[2] = molecular target: T2, human JAK1 (a.a. 837-1142) (Homo sapiens, UniProt P23458); assay: In vitro JAK kinase assay (HTRF, phosphorylation of a biotinylated peptide), JAK1
T2 construct: human JAK1 (a.a. 837-1142); His tag (N); made in house; host or cells: insect cells (baculovirus)
T2 sequence (P23458 849-1154): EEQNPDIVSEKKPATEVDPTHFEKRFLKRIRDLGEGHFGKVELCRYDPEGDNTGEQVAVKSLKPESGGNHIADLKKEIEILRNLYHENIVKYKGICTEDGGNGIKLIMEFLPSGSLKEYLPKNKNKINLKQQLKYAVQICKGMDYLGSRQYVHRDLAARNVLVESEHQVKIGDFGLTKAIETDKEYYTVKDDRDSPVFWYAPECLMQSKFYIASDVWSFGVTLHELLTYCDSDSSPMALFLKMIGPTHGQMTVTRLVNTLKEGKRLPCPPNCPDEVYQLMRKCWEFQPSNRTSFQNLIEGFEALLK
How it was run: as §1

[3] = molecular target: T3, human JAK3 (a.a. 781-1124) (Homo sapiens, UniProt P52333); assay: In vitro JAK kinase assay (HTRF, phosphorylation of a biotinylated peptide), JAK3
T3 construct: JAK3 (a.a. 781-1124); His tag (N); made in house; host or cells: insect cells (baculovirus)
T3 sequence (P52333 781-1124): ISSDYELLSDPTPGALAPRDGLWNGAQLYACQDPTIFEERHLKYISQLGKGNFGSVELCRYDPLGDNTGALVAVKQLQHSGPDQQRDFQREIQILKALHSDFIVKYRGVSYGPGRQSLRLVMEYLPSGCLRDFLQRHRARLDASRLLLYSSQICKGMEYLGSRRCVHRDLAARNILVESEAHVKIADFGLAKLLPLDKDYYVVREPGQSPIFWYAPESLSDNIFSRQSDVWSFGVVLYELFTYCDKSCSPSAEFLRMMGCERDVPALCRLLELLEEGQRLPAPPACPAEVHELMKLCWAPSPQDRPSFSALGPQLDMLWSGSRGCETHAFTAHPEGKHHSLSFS
How it was run: as §1

TYK2, sequence (P29597 whole entry): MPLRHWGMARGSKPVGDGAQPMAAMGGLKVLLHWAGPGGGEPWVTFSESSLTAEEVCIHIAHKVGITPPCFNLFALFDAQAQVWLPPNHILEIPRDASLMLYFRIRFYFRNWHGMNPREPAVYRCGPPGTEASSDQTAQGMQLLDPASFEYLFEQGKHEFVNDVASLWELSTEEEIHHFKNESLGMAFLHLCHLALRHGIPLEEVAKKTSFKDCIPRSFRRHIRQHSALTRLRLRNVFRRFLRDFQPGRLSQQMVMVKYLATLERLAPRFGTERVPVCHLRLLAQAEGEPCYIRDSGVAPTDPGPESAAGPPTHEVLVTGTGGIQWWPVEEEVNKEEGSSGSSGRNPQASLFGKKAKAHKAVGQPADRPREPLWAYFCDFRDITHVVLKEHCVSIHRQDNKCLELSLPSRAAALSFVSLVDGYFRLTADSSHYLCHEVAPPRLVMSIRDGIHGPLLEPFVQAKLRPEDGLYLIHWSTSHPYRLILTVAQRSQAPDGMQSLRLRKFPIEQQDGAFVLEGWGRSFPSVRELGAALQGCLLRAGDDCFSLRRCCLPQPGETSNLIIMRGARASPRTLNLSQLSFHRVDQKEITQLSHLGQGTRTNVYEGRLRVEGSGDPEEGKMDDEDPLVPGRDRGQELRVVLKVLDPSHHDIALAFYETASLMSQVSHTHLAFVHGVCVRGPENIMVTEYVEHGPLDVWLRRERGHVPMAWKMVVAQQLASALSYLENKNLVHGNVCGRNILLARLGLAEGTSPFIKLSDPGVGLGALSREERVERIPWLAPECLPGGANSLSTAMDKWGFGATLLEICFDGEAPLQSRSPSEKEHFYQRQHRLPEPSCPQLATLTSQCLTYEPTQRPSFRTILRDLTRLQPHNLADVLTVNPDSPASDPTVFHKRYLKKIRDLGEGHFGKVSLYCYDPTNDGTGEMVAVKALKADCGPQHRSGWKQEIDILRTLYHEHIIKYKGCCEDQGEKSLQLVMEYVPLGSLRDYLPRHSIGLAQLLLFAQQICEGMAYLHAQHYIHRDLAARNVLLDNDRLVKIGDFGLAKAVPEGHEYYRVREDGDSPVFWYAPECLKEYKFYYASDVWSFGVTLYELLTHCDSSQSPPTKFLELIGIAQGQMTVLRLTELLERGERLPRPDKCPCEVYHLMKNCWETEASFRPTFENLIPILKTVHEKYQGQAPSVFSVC

`O=C(CC1CN(c2nccs2)C1)Nc1ccc2cc1CCc1cncc(c1)Nc1ncc(Cl)c(n1)N2` [Example D152, N-[6-Chloro-2,4,8,18,22-pentaazatetracyclo[14.3.1.1(3,7).1(9,13)]docosa-1(20),3(22),4,6,9(21),10,12,16,18-nonaen-12-yl]-2-[1-(1,3-thiazol-2-yl)azetidin-3-yl]acetamide tris(trifluoroacetate)] was tested. Which IC50 (TYK2; Table D1) did it give?
The IC50 was 265 nM.

What about the IC50 ([1]; Table D1) of the same compound?
Its IC50 is 95 nM.

What about the IC50 ([2]; Table D1, read-out: JAK1 IC50) of the same compound?
The IC50 was 21 nM.

And the IC50 ([3]; Table D1)?
The IC50 was > 400 nM.

`CC(=O)N1CCC[C@H](CC(=O)Nc2ccc3cc2CCc2cccc(c2)Nc2ncc(Cl)c(n2)N3)C1` [Example D201, 2-[(3R)-1-Acetylpiperidin-3-yl]-N-[6-chloro-2,4,8,22-tetraazatetracyclo[14.3.1.1(3,7).1(9,13)]docosa-1(20),3(22),4,6,9(21),10,12,16,18-nonaen-12-yl]acetamide trifluoroacetate] was tested. Which IC50 (TYK2; Table D1) did it give?
The IC50 was 35 nM.

What about the IC50 ([1]; Table D1) of the same compound?
Its IC50 is 10 nM.

What about the IC50 ([2]; Table D1, read-out: JAK1 IC50) of the same compound?
Its IC50 is 19 nM.

And the IC50 ([3]; Table D1)?
The IC50 was 29 nM.

Which results are given for `O=C(Cc1ccsc1)Nc1ccc2cc1CCc1cccc(c1)Nc1ncc(Cl)c(n1)N2` [Example C32, N-[6-Chloro-2,4,8,22-tetraazatetracyclo[14.3.1.1(3,7).1(9,13)]docosa-1(20),3(22),4,6,9(21),10,12,16,18-nonaen-12-yl]-2-(3-thienyl)acetamide trifluoroacetate]?
IC50 (TYK2): 44 nM; IC50 [1]: 20 nM; IC50 ([2]; read-out: JAK1 IC50): 34 nM; IC50 [3]: 658 nM

Which IC50 (TYK2; Table D1) does the source give for `Cc1cc(C(=O)N2CCN(C(=O)COc3ccc4cc3CCc3cncc(c3)Nc3ncc(Cl)c(n3)N4)CC2)no1` [Example D251, 6-Chloro-12-(2-{4-[(5-methylisoxazol-3-yl)carbonyl]piperazin-1-yl}-2-oxoethoxy)-2,4,8,18,22-pentaazatetracyclo[14.3.1.1(3,7).1(9,13)]docosa-1(20),3(22),4,6,9(21),10,12,16,18-nonaene bis(trifluoroacetate)] here?
Its IC50 is > 400 nM.

What about the IC50 ([1]; Table D1) of the same compound?
Its IC50 is 17 nM.

What about the IC50 ([2]; Table D1, read-out: JAK1 IC50) of the same compound?
Its IC50 is 18 nM.

What about the IC50 ([3]; Table D1) of the same compound?
The IC50 was > 400 nM.

`CN1c2cccc(c2)CCc2cncc(c2)Nc2nccc1n2` [Example D224, 8-Methyl-2,4,8,18,22-pentaazatetracyclo[14.3.1.1(3,7).1(9,13)]docosa-1(20),3(22),4,6,9(21),10,12,16,18-nonaene bis(trifluoroacetate)] was tested. Which IC50 (TYK2; Table D1) did it give?
Its IC50 is > 400 nM.

What about the IC50 ([1]; Table D1) of the same compound?
The IC50 was 126 nM.

And the IC50 ([2]; Table D1, read-out: JAK1 IC50)?
The IC50 was 300 nM.

And the IC50 ([3]; Table D1)?
The IC50 was > 400 nM.

Which IC50 (TYK2) does the source give for `Cc1[nH]c2ccccc2c1CC(=O)Nc1ccc2cc1CCc1cccc(c1)Nc1ncc(Cl)c(n1)N2` [Example C34, N-[6-Chloro-2,4,8,22-tetraazatetracyclo[14.3.1.1(3,7).1(9,13)]docosa-1(20),3(22),4,6,9(21),10,12,16,18-nonaen-12-yl]-2-(2-methyl-1H-indol-3-yl)acetamide trifluoroacetate] here?
The IC50 was 775 nM.

And the IC50 [1]?
The IC50 was 178 nM.

And the IC50 ([2]; read-out: JAK1 IC50)?
Its IC50 is 265 nM.

And the IC50 [3]?
Its IC50 is 4000 nM.

With `O=C(C[C@H]1CCCN(C(=O)c2ccccc2)C1)Nc1ccc2cc1CCc1cccc(c1)Nc1ncc(Cl)c(n1)N2` [Example D203, 2-[(3R)-1-Benzoylpiperidin-3-yl]-N-[6-chloro-2,4,8,22-tetraazatetracyclo[14.3.1.1(3,7).1(9,13)]docosa-1(20),3(22),4,6,9(21),10,12,16,18-nonaen-12-yl]acetamide trifluoroacetate] as the compound, how does the IC50 (TYK2; Table D1) read?
The IC50 was 70 nM.

What about the IC50 ([1]; Table D1) of the same compound?
The IC50 was 13 nM.

What about the IC50 ([2]; Table D1, read-out: JAK1 IC50) of the same compound?
The IC50 was 32 nM.

And the IC50 ([3]; Table D1)?
The IC50 was 85 nM.

`O=C(Cc1ccncc1)Nc1ccc2cc1CCc1cccc(c1)Nc1ncc(Cl)c(n1)N2` [Example C40, N-[6-Chloro-2,4,8,22-tetraazatetracyclo[14.3.1.1(3,7).1(9,13)]docosa-1(20),3(22),4,6,9(21),10,12,16,18-nonaen-12-yl]-2-pyridin-4-ylacetamide bis(trifluoroacetate)] was tested. Which IC50 (TYK2) did it give?
Its IC50 is 291 nM.

And the IC50 [1]?
The IC50 was 56 nM.

What about the IC50 ([2]; read-out: JAK1 IC50) of the same compound?
Its IC50 is 62 nM.

And the IC50 [3]?
The IC50 was 804 nM.

Which IC50 (TYK2; Table D1) does the source give for `N#CC1(C(=O)N2CCN(C(=O)COc3ccc4cc3CCc3cncc(c3)Nc3ncc(Cl)c(n3)N4)CC2)CC1` [Example D267, 1-{[4-({[6-Chloro-2,4,8,18,22-pentaazatetracyclo[14.3.1.1(3,7).1(9,13)]docosa-1(20),3(22),4,6,9(21),10,12,16,18-nonaen-12-yl]oxy}acetyl)piperazin-1-yl]carbonyl}cyclopropanecarbonitrile bis(trifluoroacetate)] here?
The IC50 was > 400 nM.

And the IC50 ([1]; Table D1)?
Its IC50 is 300 nM.

And the IC50 ([2]; Table D1, read-out: JAK1 IC50)?
The IC50 was 84 nM.

And the IC50 ([3]; Table D1)?
The IC50 was > 400 nM.

Which IC50 (TYK2; Table D1) does the source give for `Clc1cnc2nc1Nc1cccc(c1)OCCc1cc(CN3CCOCC3)cc(c1)N2` [Example D189, 6-Chloro-19-(morpholin-4-ylmethyl)-14-oxa-2,4,8,23-tetraazatetracyclo[15.3.1.1(3,7).1(9,13)]tricosa-1(21),3(23),4,6,9(22),10,12,17,19-nonaene bis(trifluoroacetate)] here?
Its IC50 is 5.2 nM.

And the IC50 ([1]; Table D1)?
The IC50 was 0.5 nM.

And the IC50 ([2]; Table D1, read-out: JAK1 IC50)?
The IC50 was 7.6 nM.

And the IC50 ([3]; Table D1)?
Its IC50 is 7.3 nM.

For `O=C(Nc1cccnc1)N1CCC(CCOc2ccc3cc2CCc2cncc(c2)Nc2ncc(Cl)c(n2)N3)CC1` [Example D182, 4-(2-{[6-Chloro-2,4,8,18,22-pentaazatetracyclo[14.3.1.1(3,7).1(9,13)]docosa-1(20),3(22),4,6,9(21),10,12,16,18-nonaen-12-yl]oxy}ethyl)-N-pyridin-3-ylpiperidine-1-carboxamide tris(trifluoroacetate)], which IC50 (TYK2; Table D1) is on record?
Its IC50 is > 400 nM.

And the IC50 ([1]; Table D1)?
Its IC50 is 180 nM.

And the IC50 ([2]; Table D1, read-out: JAK1 IC50)?
Its IC50 is 68 nM.

And the IC50 ([3]; Table D1)?
The IC50 was > 400 nM.

Which results are given for `CC(=O)N1CCC(CCOc2ccc3cc2CCc2cncc(c2)Nc2ncc(Cl)c(n2)N3)CC1` [Example D161, 12-[2-(1-Acetylpiperidin-4-yl)ethoxy]-6-chloro-2,4,8,18,22-pentaazatetracyclo[14.3.1.1(3,7).1(9,13)]docosa-1(20),3(22),4,6,9(21),10,12,16,18-nonaene bis(trifluoroacetate)]?
IC50 (TYK2; Table D1): > 400 nM; IC50 ([1]; Table D1): 276 nM; IC50 ([2]; JAK1 IC50 (nM), Table D1): 85 nM; IC50 ([3]; Table D1): > 400 nM

`O=C(COc1ccc2cc1CCc1cncc(c1)Nc1ncc(Cl)c(n1)N2)N1CCN(S(=O)(=O)c2ccccc2F)CC1` [Example D253, 6-Chloro-12-(2-{4-[(2-fluorophenyl)sulfonyl]piperazin-1-yl}-2-oxoethoxy)-2,4,8,18,22-pentaazatetracyclo[14.3.1.1(3,7).1(9,13)]docosa-1(20),3(22),4,6,9(21),10,12,16,18-nonaene bis(trifluoroacetate)] was tested. Which IC50 (TYK2; Table D1) did it give?
Its IC50 is > 400 nM.

What about the IC50 ([1]; Table D1) of the same compound?
Its IC50 is 67 nM.

And the IC50 ([2]; Table D1, read-out: JAK1 IC50)?
The IC50 was 35 nM.

And the IC50 ([3]; Table D1)?
The IC50 was > 400 nM.

With `O=C(Cc1c[nH]cn1)Nc1ccc2cc1CCc1cccc(c1)Nc1ncc(Cl)c(n1)N2` [Example C33, N-[6-Chloro-2,4,8,22-tetraazatetracyclo[14.3.1.1(3,7).1(9,13)]docosa-1(20),3(22),4,6,9(21),10,12,16,18-nonaen-12-yl]-2-(1H-imidazol-4-yl)acetamide bis(trifluoroacetate)] as the compound, how does the IC50 (TYK2) read?
The IC50 was 217 nM.

What about the IC50 [1] of the same compound?
The IC50 was 35 nM.

What about the IC50 ([2]; read-out: JAK1 IC50) of the same compound?
The IC50 was 17 nM.

What about the IC50 [3] of the same compound?
Its IC50 is 733 nM.

Which results are given for `Cc1cc(C(=O)N2CCC(COc3ccc4cc3CCc3cncc(c3)Nc3ncc(Cl)c(n3)N4)CC2)no1` [Example D226, 6-Chloro-12-({1-[(5-methylisoxazol-3-yl)carbonyl]piperidin-4-yl}methoxy)-2,4,8,18,22-pentaazatetracyclo[14.3.1.1(3,7).1(9,13)]docosa-1(20),3(22),4,6,9(21),10,12,16,18-nonaene bis(trifluoroacetate)]?
IC50 (TYK2; Table D1): > 400 nM; IC50 ([1]; Table D1): > 400 nM; IC50 ([2]; Table D1, read-out: JAK1 IC50): 255 nM; IC50 ([3]; Table D1): > 400 nM
